Data set [1] in a line: stability of the polymorphic form. It counts as physicochemical. Conditions: statement in summary, no conditions given.
A short description of data set [2]: aqueous solubility of cilostazol polymorphic forms. The data set is classed as physicochemical.
A short description of data set [3]: bioavailability of cilostazol Form A. It counts as in vivo. The conditions noted are these: Form A as prepared by the procedures of the '479 patent.

Turning to `O=C1CCc2cc(OCCCCc3nnnn3C3CCCCC3)ccc2N1` [Form B, 6-[4-(1-cyclohexyl-1H-tetrazol-5-yl)butoxy]-3,4-dihydro-2(1H)-quinolinone], in data set [1], the “stability of the form” value was “stable”. The “solubility relative to Form A” value in data set [2] (inferred from lower DSC melting point (FIG. 8), no solubility measurement) is listed as “more soluble than Form A”.

As for `O=C1CCc2cc(OCCCCc3nnnn3C3CCCCC3)ccc2N1` [Form A, 6-[4-(1-cyclohexyl-1H-tetrazol-5-yl)butoxy]-3,4-dihydro-2(1H)-quinolinone], the bioavailability entry in data set [3] is reported as “low bioavailability”. In addition, the aqueous solubility entry in data set [2] (Form A as prepared by the procedures of the '479 patent) is listed as “low aqueous solubility”.

Values taken from patent US20030045548A1, “Polymorphic forms of 6-[4-(1-cyclohexyl-1H-tetrazol-5-YL)butoxy]-3,4-dihydro-2(1H)-quinolinone” (priority 2001, published 2003).
